Key:
[1] = test system: Campylobacter jejuni with high-level ciprofloxacin resistance; settings: gyrA codon 86 C to T transition; cited from earlier work
[2] = test system: Campylobacter jejuni strain cj49349; test: Growth on BASB agar supplemented with ciprofloxacin; assay type: cell-based; settings: ciprofloxacin at 16 μg per ml; wild-type strain cj49349
[3] = test system: ciprofloxacin-resistant Campylobacter jejuni mutants (C to T transition in codon 86 of gyrA); test: Growth of selected mutants on BASB medium containing ciprofloxacin; assay type: cell-based; settings: ciprofloxacin at 16 μg/ml; 12 Campylobacter mutants

In the case of `O=C(O)c1cn(C2CC2)c2cc(N3CCNCC3)c(F)cc2c1=O` [ciprofloxacin], the MIC [1] is given as ≥ 16 µg/mL, the “growth on BASB agar supplemented with ciprofloxacin” value [2] is given as “unable to grow” and the “growth on BASB medium containing ciprofloxacin” value [3] is given as “able to grow”.
